ChEMBL document CHEMBL4028803, “Design, synthesis, and structure-activity relationship studies of benzothiazole derivatives as antifungal agents” (Eur J Med Chem, 2016)
Values after ≈ are worked out from the molar mass of the structure shown.

Experiments:
Candida albicans [1] = experiment: Antifungal activity against Candida albicans ATCC SC5314 by broth microdilution assay; assay type: functional
Candida albicans [2] = experiment: Antifungal activity against Candida albicans CPCC 400523 by broth microdilution assay; assay type: functional
Cryptococcus neoformans [3] = experiment: Antifungal activity against Cryptococcus neoformans cgmcc 2.3161 by broth microdilution assay; assay type: functional
Aspergillus fumigatus = experiment: Antifungal activity against Aspergillus fumigatus cgmcc 3.7795 by broth microdilution assay; assay type: functional
Candida tropicalis = experiment: Antifungal activity against Candida tropicalis cgmcc 2.3739 by broth microdilution assay; assay type: functional
Candida albicans [4] = experiment: Antifungal activity against fluconazole-resistant Candida albicans 100 by broth microdilution assay; assay type: functional
Candida albicans [5] = experiment: Antifungal activity against fluconazole-resistant Candida albicans 103 by broth microdilution assay; assay type: functional
[6] = molecular target: T1, Lanosterol 14-alpha demethylase (Candida albicans (strain SC5314 / ATCC MYA-2876) (Yeast), UniProt P10613); experiment: Inhibition of CYP51 in Candida albicans ATCC SC5314 assessed as ergosterol composition of the total sterol fraction in membrane at 8 ug/ml after 16 hrs by GC-MS analysis (reference value: 89.6%); parameters: scale not given: the % may be the effect or the level left; conditions: candida albicans sc5314, 16 h
[7] = molecular target: T1, Lanosterol 14-alpha demethylase; experiment: Inhibition of CYP51 in Candida albicans ATCC SC5314 assessed as obtusifoliol composition of the total sterol fraction in membrane at 8 ug/ml after 16 hrs by GC-MS analysis relative to control; parameters: scale not given: the % may be the effect or the level left; conditions: candida albicans sc5314, 16 h
[8] = molecular target: T1, Lanosterol 14-alpha demethylase; experiment: Inhibition of CYP51 in Candida albicans ATCC SC5314 assessed as lanosterol composition of the total sterol fraction in membrane at 8 ug/ml after 16 hrs by GC-MS analysis (reference value: 2.9%); parameters: scale not given: the % may be the effect or the level left; conditions: candida albicans sc5314, 16 h
[9] = molecular target: T1, Lanosterol 14-alpha demethylase; experiment: Inhibition of CYP51 in Candida albicans ATCC SC5314 assessed as eburicol composition of the total sterol fraction in membrane at 8 ug/ml after 16 hrs by GC-MS analysis relative to control; parameters: scale not given: the % may be the effect or the level left; conditions: candida albicans sc5314, 16 h
[10] = molecular target: T1, Lanosterol 14-alpha demethylase; experiment: Inhibition of CYP51 in Candida albicans ATCC SC5314 assessed as sterol composition in membrane at 8 ug/ml after 16 hrs by GC-MS analysis (reference value: 7.5%); parameters: scale not given: the % may be the effect or the level left; conditions: candida albicans sc5314, 16 h
Candida albicans [11] = experiment: Antifungal activity against Candida albicans by NCCLS method; assay type: functional
Cryptococcus neoformans [12] = experiment: Antifungal activity against Cryptococcus neoformans by NCCLS method; assay type: functional

T1 sequence (P10613 whole entry): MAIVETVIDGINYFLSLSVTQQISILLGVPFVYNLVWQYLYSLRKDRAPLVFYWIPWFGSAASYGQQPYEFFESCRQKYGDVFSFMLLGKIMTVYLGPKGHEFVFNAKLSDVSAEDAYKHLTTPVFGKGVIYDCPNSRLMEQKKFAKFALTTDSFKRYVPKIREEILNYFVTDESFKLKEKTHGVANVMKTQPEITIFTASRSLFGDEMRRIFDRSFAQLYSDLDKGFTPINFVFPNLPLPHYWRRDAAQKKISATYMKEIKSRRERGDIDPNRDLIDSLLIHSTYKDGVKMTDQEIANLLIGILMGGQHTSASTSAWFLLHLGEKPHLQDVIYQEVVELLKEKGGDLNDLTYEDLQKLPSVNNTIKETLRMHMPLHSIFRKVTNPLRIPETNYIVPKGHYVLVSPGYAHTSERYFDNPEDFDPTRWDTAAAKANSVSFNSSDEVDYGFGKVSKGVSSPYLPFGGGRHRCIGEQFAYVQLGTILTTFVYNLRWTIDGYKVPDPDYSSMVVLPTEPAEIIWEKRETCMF

SMILES | MIC (Candida albicans [1]) [µg/mL] | MIC (Candida albicans [2]) [µg/mL] | MIC (Cryptococcus neoformans [3]) [µg/mL] | MIC (Aspergillus fumigatus) [µg/mL] | MIC (Candida tropicalis) [µg/mL] | MIC (Candida albicans [4]) [µg/mL] | MIC (Candida albicans [5]) [µg/mL] | Activity [6] [%] | Activity [7] [%] | Activity [8] [%] | Activity [9] [%] | Activity [10] [%] | MIC (Candida albicans [11]) [µg/mL] | MIC (Cryptococcus neoformans [12]) [µg/mL]
CCNC(=O)[C@H](Cn1ccnc1)NC(=O)c1nc2ccc(Br)cc2s1 | > 64 | > 64 | > 64 | > 64 | > 64 |  |  |  |  |  |  |  |  | 
Cc1ccc2nc(C(=O)N[C@@H](Cn3ccnc3)C(=O)OC(C)C)sc2c1 | 0.5 (≈ 1.34 µM) | 4 (≈ 10.7 µM) | 2 (≈ 5.37 µM) | > 64 | 1 (≈ 2.68 µM) |  |  |  |  |  |  |  |  | 
Cc1ccc2nc(C(=O)N[C@@H](Cn3ccnc3)C(=O)OCC(C)C)sc2c1 | 0.25 (≈ 0.647 µM) | 2 (≈ 5.17 µM) | 0.5 (≈ 1.29 µM) | > 64 | 0.5 (≈ 1.29 µM) |  |  |  |  |  |  |  |  | 
CC(C)COC(=O)[C@@H](Cn1ccnc1)NC(=O)c1nc2ccc(Br)cc2s1 | 0.125 (≈ 0.277 µM) | 0.25 (≈ 0.554 µM) | 0.5 (≈ 1.11 µM) | > 64 | 0.125 (≈ 0.277 µM) |  |  |  |  |  |  |  |  | 
CCOC(=O)[C@H](Cn1ccnc1)NC(=O)c1nc2ccc(C)cc2s1 | 2 (≈ 5.58 µM) | > 64 | 8 (≈ 22.3 µM) | > 64 | 4 (≈ 11.2 µM) |  |  |  |  |  |  |  |  | 
CC(C)COC(=O)[C@H](Cn1ccnc1)NC(=O)c1nc2ccc(F)cc2s1 | 0.5 (≈ 1.28 µM) | 16 (≈ 41 µM) | 4 (≈ 10.2 µM) | > 64 | 8 (≈ 20.5 µM) |  |  |  |  |  |  |  |  | 
CCCOC(=O)[C@H](Cn1ccnc1)NC(=O)c1nc2ccc(C)cc2s1 | 0.5 (≈ 1.34 µM) | 4 (≈ 10.7 µM) | 2 (≈ 5.37 µM) | > 64 | 0.5 (≈ 1.34 µM) |  |  |  |  |  |  |  |  | 
CC(C)COC(=O)[C@H](Cn1ccnc1)NC(=O)c1nc2c(C(F)(F)F)cccc2s1 | > 64 | > 64 | > 64 | > 64 | > 64 |  |  |  |  |  |  |  |  | 
CC(C)COC(=O)[C@H](Cn1ccnc1)NC(=O)c1nc2ccc(Cl)cc2s1 | 0.125 (≈ 0.307 µM) | 2 (≈ 4.92 µM) | 1 (≈ 2.46 µM) | > 64 | 0.25 (≈ 0.614 µM) |  |  |  |  |  |  |  |  | 
Cc1cccc2sc(C(=O)N[C@@H](Cn3ccnc3)C(=O)OCC(C)C)nc12 | > 64 | > 64 | > 64 | > 64 | > 64 |  |  |  |  |  |  |  |  | 
CCCOC(=O)[C@H](Cn1ccnc1)NC(=O)c1nc2ccc(Cl)cc2s1 | 0.5 (≈ 1.27 µM) | 2 (≈ 5.09 µM) | 2 (≈ 5.09 µM) | > 64 | 1 (≈ 2.55 µM) |  |  |  |  |  |  |  |  | 
CC(C)OC(=O)[C@H](Cn1ccnc1)NC(=O)c1nc2ccc(F)cc2s1 | 4 (≈ 10.6 µM) | 16 (≈ 42.5 µM) | > 64 | > 64 | 16 (≈ 42.5 µM) |  |  |  |  |  |  |  |  | 
CC(C)COC(=O)[C@H](Cn1ccnc1)NC(=O)c1nc2ccc(Br)cc2s1 | 0.125 (≈ 0.277 µM) | 0.25 (≈ 0.554 µM) | 0.5 (≈ 1.11 µM) | > 64 | 0.25 (≈ 0.554 µM) | 16 (≈ 35.4 µM) | 8 (≈ 17.7 µM) | 2.7 | 6.4 | 18.8 | 63.4 | 8.6 |  | 
COC(=O)[C@H](Cn1ccnc1)NC(=O)c1nc2ccc(C)cc2s1 | 8 (≈ 23.2 µM) | > 64 | 8 (≈ 23.2 µM) | > 64 | 16 (≈ 46.5 µM) |  |  |  |  |  |  |  |  | 
COC(=O)[C@H](Cn1ccnc1)NC(=O)c1nc2ccccc2s1 |  |  |  |  |  |  |  |  |  |  |  |  | 8 (≈ 24.2 µM) | 2 (≈ 6.05 µM)
COC(=O)[C@H](Cn1ccnc1)NC(=O)c1nc2ccc(Cl)cc2s1 | 8 (≈ 21.9 µM) | 16 (≈ 43.9 µM) | 32 (≈ 87.7 µM) | > 64 | 8 (≈ 21.9 µM) |  |  |  |  |  |  |  |  | 
COc1ccc2nc(C(=O)N[C@@H](Cn3ccnc3)C(=O)OC(C)C)sc2c1 | 2 (≈ 5.15 µM) | 4 (≈ 10.3 µM) | 32 (≈ 82.4 µM) | > 64 | 2 (≈ 5.15 µM) |  |  |  |  |  |  |  |  | 
CNC(=O)[C@H](Cn1ccnc1)NC(=O)c1nc2ccc(Br)cc2s1 | > 64 | > 64 | > 64 | > 64 | > 64 |  |  |  |  |  |  |  |  | 
CC(C)OC(=O)[C@H](Cn1ccnc1)NC(=O)c1nc2ccc(Br)cc2s1 | 0.125 (≈ 0.286 µM) | 0.5 (≈ 1.14 µM) | 2 (≈ 4.57 µM) | > 64 | 0.5 (≈ 1.14 µM) | 32 (≈ 73.2 µM) | 16 (≈ 36.6 µM) |  |  |  |  |  |  | 
CC(C)OC(=O)[C@@H](Cn1ccnc1)NC(=O)c1nc2ccc(Br)cc2s1 | 0.125 (≈ 0.286 µM) | 0.5 (≈ 1.14 µM) | 2 (≈ 4.57 µM) | > 64 | 1 (≈ 2.29 µM) |  |  |  |  |  |  |  |  | 
CC(C)OC(=O)[C@H](Cn1ccnc1)NC(=O)c1nc2ccc(Cl)cc2s1 | 0.25 (≈ 0.636 µM) | 2 (≈ 5.09 µM) | 2 (≈ 5.09 µM) | > 64 | 1 (≈ 2.55 µM) |  |  |  |  |  |  |  |  | 
CC(C)COC(=O)[C@H](Cn1ccnc1)NC(=O)c1nc2c(Cl)cccc2s1 | > 64 | > 64 | > 64 | > 64 | > 64 |  |  |  |  |  |  |  |  | 
CCOC(=O)[C@H](Cn1ccnc1)NC(=O)c1nc2ccc(Cl)cc2s1 | 0.5 (≈ 1.32 µM) | 4 (≈ 10.6 µM) | 8 (≈ 21.1 µM) | > 64 | 2 (≈ 5.28 µM) |  |  |  |  |  |  |  |  | 
CC(C)COC(=O)[C@H](Cn1ccnc1)NC(=O)c1nc2ccc(C(F)(F)F)cc2s1 | 0.125 (≈ 0.284 µM) | 2 (≈ 4.54 µM) | 0.5 (≈ 1.14 µM) | > 64 | 0.5 (≈ 1.14 µM) | 32 (≈ 72.7 µM) | 32 (≈ 72.7 µM) |  |  |  |  |  |  | 
COc1ccc2nc(C(=O)N[C@@H](Cn3ccnc3)C(=O)OCC(C)C)sc2c1 | 2 (≈ 4.97 µM) | 4 (≈ 9.94 µM) | 8 (≈ 19.9 µM) | > 64 | 1 (≈ 2.48 µM) |  |  |  |  |  |  |  |  | 
CC(C)OC(=O)[C@H](Cn1ccnc1)NC(=O)c1nc2ccc(C(F)(F)F)cc2s1 | 0.125 (≈ 0.293 µM) | 2 (≈ 4.69 µM) | 2 (≈ 4.69 µM) | > 64 | 1 (≈ 2.35 µM) |  |  |  |  |  |  |  |  | 
OC(Cn1cncn1)(Cn1cncn1)c1ccc(F)cc1F [FLUCONAZOLE] | 0.5 (≈ 1.63 µM) | 1 (≈ 3.27 µM) | 4 (≈ 13.1 µM) | > 64 | 1 (≈ 3.27 µM) | > 64 | > 64 | 2.1 | 6.9 | 18.3 | 67.9 | 4.8 |  | 
CCC(C)n1ncn(-c2ccc(N3CCN(c4ccc(OCC5COC(Cn6cncn6)(c6ccc(Cl)cc6Cl)O5)cc4)CC3)cc2)c1=O (stereo not given) [ITRACONAZOLE] | 0.125 (≈ 0.177 µM) | 0.5 (≈ 0.709 µM) | 1 (≈ 1.42 µM) | 4 (≈ 5.67 µM) | 0.5 (≈ 0.709 µM) |  |  |  |  |  |  |  |  | 
